The source of these data is US5223485A, “Anaphylatoxin-receptor ligands” (Abbott Laboratories, priority 1991, dated 1993).

Square brackets hold non-standard residues; d marks the D form. Peptide text beside a SMILES is read from it. Cha = N[C@@H](CC1CCCCC1)C(=O)O

This assay concerns the target T1, C5a Receptor (Homo sapiens, UniProt P21730).
T1 construct: 2.5-25 μg/mL of purified PMNL membrane fragments; from tissue; host or cells: polymorphonuclear leukocyte (PMNL) membrane fragments
T1 sequence (P21730 1-350): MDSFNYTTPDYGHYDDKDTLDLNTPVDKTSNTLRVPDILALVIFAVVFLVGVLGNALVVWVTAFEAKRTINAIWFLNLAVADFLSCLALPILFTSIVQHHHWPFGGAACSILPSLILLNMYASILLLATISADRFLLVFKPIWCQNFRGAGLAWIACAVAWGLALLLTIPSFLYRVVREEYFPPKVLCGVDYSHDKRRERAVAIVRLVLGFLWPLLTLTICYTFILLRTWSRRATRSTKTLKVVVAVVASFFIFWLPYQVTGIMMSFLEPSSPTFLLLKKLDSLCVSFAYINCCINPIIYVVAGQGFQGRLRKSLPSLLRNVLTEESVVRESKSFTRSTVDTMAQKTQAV
Description: Anaphylatoxin receptor binding Ki determination: inhibition of 125I-C5a binding to PMNL membrane fragments. Particulars: 0.03-1 nM 125I-C5a, 2.5-25 μg/mL purified PMNL membrane fragments, filtration; read-out: In vitro C5a Receptor Binding Potency Ki. As to the method:
Specific inhibition of C5a binding activity of representative compounds of the present invention was measured using 0.03-1 nM ^125 I-C5a with 2.5-25 μg/mL of purified PMNL membrane fragments (Borregaard, N.; Heiple, J. M.; Simons, E. R.; and Clark, R. A. J. Cell. Biol. 1983, 97, 52-61.). Free and membrane-bound ligand were separated by filtration.

In the case of `CC[C@H](C)[C@H](N)C(=O)N[C@@H](CO)C(=O)N[C@@H](Cc1ccccc1)C(=O)N[C@@H](CCCCN)C(=O)N[C@@H](CC(=O)O)C(=O)N[C@@H](CC1CCCCC1)C(=O)N[C@@H](CC1CCCCC1)C(=O)N[C@@H](CC(C)C)C(=O)N[C@H](C)C(=O)N[C@@H](CCCNC(=N)N)C(=O)O` [Example 111, H-Isoleucyl-Seryl-Phenylalanyl-Lysyl-Aspartyl-{(2S)-2-Amino-3-cyclohexylpropanoyl}-{(2S)-2-Amino-3-cyclohexylpropanoyl}-Leucyl-DAlanyl-Arginyl-OH] (H-ISFKD[Cha][Cha]L[dA]R-OH), the inhibitory constant (Ki) (usually a dissociation constant, usually derived from enzyme kinetics or from competition with a known ligand) was 650 nM.
